{"source": "paper PMC1664607", "about": "(PLoS Medicine, 2006)", "key": {"CYP2A6": {"target": "T1, CYP2A6 (Homo sapiens, UniProt P11509)", "T1 construct": "Standard incubation mixtures of 0.5 ml contained microsomal protein (0.1–0.5 mg); from tissue; host or cells: pooled human liver microsomes (ten donors)", "T1 sequence (P11509 1-494)": "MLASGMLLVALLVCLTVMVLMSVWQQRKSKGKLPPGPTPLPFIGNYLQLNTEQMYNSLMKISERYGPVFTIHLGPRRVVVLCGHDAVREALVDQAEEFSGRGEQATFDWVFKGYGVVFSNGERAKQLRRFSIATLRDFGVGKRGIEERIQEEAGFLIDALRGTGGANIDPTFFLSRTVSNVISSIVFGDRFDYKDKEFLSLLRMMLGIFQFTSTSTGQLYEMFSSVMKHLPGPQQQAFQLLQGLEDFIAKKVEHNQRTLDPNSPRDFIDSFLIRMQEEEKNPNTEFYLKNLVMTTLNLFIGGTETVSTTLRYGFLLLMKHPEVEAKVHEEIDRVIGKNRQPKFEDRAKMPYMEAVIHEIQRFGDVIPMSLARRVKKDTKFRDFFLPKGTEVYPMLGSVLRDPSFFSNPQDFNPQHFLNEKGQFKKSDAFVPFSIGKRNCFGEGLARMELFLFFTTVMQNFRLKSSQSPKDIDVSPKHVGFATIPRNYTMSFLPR", "experiment": "Coumarin 7-hydroxylation in human liver microsomes", "format": "in vitro ADME", "conditions": "100 μM; 2 μM coumarin"}, "CYP2E1": {"target": "T2, CYP2E1 (Homo sapiens, UniProt P05181)", "T2 construct": "Standard incubation mixtures of 0.5 ml contained microsomal protein (0.1–0.5 mg); from tissue; host or cells: pooled human liver microsomes (ten donors)", "T2 sequence (P05181 whole entry)": "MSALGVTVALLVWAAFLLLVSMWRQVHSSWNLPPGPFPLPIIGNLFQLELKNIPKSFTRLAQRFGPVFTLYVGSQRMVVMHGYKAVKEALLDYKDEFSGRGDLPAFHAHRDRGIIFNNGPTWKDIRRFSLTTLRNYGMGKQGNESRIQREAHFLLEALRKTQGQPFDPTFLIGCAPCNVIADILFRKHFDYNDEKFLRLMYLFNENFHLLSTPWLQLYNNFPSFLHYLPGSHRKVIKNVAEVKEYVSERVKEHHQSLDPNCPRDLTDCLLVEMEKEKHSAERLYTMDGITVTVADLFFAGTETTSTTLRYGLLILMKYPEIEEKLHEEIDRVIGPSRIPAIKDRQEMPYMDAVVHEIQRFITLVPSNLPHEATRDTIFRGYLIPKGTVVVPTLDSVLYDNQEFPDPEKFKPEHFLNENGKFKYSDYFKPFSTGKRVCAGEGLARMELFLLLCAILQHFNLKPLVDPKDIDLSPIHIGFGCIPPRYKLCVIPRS", "experiment": "Chlorzoxazone 6-hydroxylation in human liver microsomes", "format": "in vitro ADME", "conditions": "100 μM; 100 μM chlorzoxazone"}}, "data": [{"smiles": "CCN(CC)C(=S)S", "note": "[Diethyldithiocarbamate, diethyldithiocarbamate]", "values": [{"measurement": "Percent of Control", "setting": "CYP2A6", "value": "38.2% of Control"}, {"measurement": "Percent of Control", "setting": "CYP2E1", "value": "55.0% of Control"}]}]}
